Where “and” joins values, the source holds several entries; their conditions need not be identical. Equal entries are not always repeated. Blank lines part the entries; values can stand above or below the molecule they belong to. No end group written: not given here. *: point of attachment. FITC = O=C1OC2(c3ccc(O)cc3Oc3cc(O)ccc32)c2ccc(NC(=S)*)cc21; Ahx = NCCCCCC(=O)O
Tests used:
[1] = target: T1, AF9-DOT1L interaction (Homo sapiens, UniProt P42568); assay: Alpha assay, AF9 AHD-DOT1L peptide interaction; format: binding; conditions: read-out: IC50, inhibition of AF9-DOT1L interaction
T1 construct: cDNA for human AF9 AHD domain (475-568) and ENL AHD domain (489-559) was synthesized; made in house; host or cells: E. coli BL21(DE3)
T1 sequence (P42568 475-568): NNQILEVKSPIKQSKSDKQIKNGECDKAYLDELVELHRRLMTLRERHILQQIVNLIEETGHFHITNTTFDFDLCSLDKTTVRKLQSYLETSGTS
Text: (§1) We developed an Alpha (amplified luminescent proximity homogeneous assay) assay to determine the binding and inhibition of the PPI between maltose-binding protein (MBP)-tagged AF9 AHD and a biotin-labeled DOT1L peptide, using AlphaLisa streptavidin donor beads and anti-MBP acceptor beads. Laser excitation to the donor beads generates singlet oxygen radicals, which can travel for <200 nm in solution and cannot reach the free acceptor beads. The PPI brings the DOT1L coated donor beads and AHD coated acceptor beads together, allowing the radicals to activate the acceptor beads and produce luminescence. […] We also developed a fluorescence polarization (FP) assay. A fluorescein-labeled DOT1L peptide has a higher freedom in solution with a lower polarization value.
(§2) Alpha assays. Alpha assays were developed using Perkin-Elmer AlphaLisa anti-MBP kit, which contains streptavidin donor beads and anti-MBP acceptor beads. The assay was performed using a MBP-protein (5 nM), a biotinylated peptide (40 nM), and increasing concentrations of a compound in 25 µL buffer (PBS with 0.5 % BSA, pH 7.5) in 384-well plates according to the manufacturer's protocol and measured with a Tecan SPARK microplate reader. Data were imported into Prism (version 5.0), and IC50 values from 3 independent experiments with standard deviation were obtained by using a standard dose-response curve fitting.

[2] = target: T2, ENL-AF4 interaction (Homo sapiens, UniProt Q03111); assay: Alpha assay, ENL-AF4 interaction; format: binding; conditions: read-out: IC50, inhibition of ENL-AF4 interaction
T2 construct: ENL AHD domain (489-559) was synthesized (by Genscript) and inserted into the pMAL c5X expression plasmid; made in house; host or cells: E. coli BL21(DE3)
Experimental: (§3) ENL is also a major MLL fusion partner (~10%). The AHD domains of human ENL and AF9 share a high homology with 82% identity and 89% similarity (Figure S1A). […] Our attempts to develop an Alpha assay for ENL-DOT1L failed. […] Compound 1's activity against ENL-DOT1L was therefore not determined.
as §2

[3] = target: T1, AF9-DOT1L interaction; assay: Fluorescence polarization (FP) inhibition assay, AF9-DOT1L; format: binding
Text: as §1
Fluorescence polarization assay. It was performed in 96-well black microplates with each well containing a Fluorescein-labeled peptide (2 nM) and increasing concentration of a AF9/ENL protein in a buffer (20 mM HEPES, pH 7.5, 0.01% Triton X-100, 100 µL) for Kd determination. For IC50 determination, a Fluorescein-labeled peptide (2 nM), AF9/ENL protein (100 nM) and increasing concentration of a compound in the same buffer were placed in each well. Upon incubation of 1h, the FP value of each well was determined using a Tecan SPARK microplate reader. Data were similarly processed to obtain Kd or IC50 values.

[4] = target: T3, ENL-AFF4 interaction (Homo sapiens, UniProt Q03111); assay: Alpha assay, ENL-AFF4 interaction; format: binding; conditions: read-out: IC50, inhibition of ENL-AFF4 interaction
T3 construct: ENL AHD domain (489-559) was synthesized (by Genscript) and inserted into the pMAL c5X expression plasmid; made in house; host or cells: E. coli BL21(DE3)
Experimental: as §3, §2

[5] = target: T4, AF9-AFF4 interaction (Homo sapiens, UniProt P42568); assay: Alpha assay, AF9-AFF4 interaction; format: binding; conditions: read-out: IC50, inhibition of AF9-AFF4 interaction
T4 construct: cDNA for human AF9 AHD domain (475-568) and ENL AHD domain (489-559) was synthesized; made in house; host or cells: E. coli BL21(DE3)
Experimental: as §3, §2

[6] = target: T5, AF9-AF4 interaction (Homo sapiens, UniProt P42568); assay: Alpha assay, AF9-AF4 interaction; format: binding; conditions: read-out: IC50, inhibition of AF9-AF4 interaction
T5 construct: cDNA for human AF9 AHD domain (475-568) and ENL AHD domain (489-559) was synthesized; made in house; host or cells: E. coli BL21(DE3)
Experimental: as §3, §2

[7] = target: T6, maltose-binding protein (MBP)-tagged ENL AHD domain (489-559) (human, UniProt Q03111 489-559); assay: fluorescence polarisation; direct titration: fluorescein-labeled peptide 2 nM, increasing concentration of AF9/ENL protein; 20 mM HEPES, pH 7.5, 0.01% Triton X-100; 1 h incubation; conditions: both partners purified
T6 construct: human ENL, AHD domain, residues 489-559; cDNA synthesized by Genscript, in pMAL c5X; No cleavage of MBP is described; source: E. coli BL21(DE3), purified (amylose resin, size exclusion)
T6 sequence (looked up): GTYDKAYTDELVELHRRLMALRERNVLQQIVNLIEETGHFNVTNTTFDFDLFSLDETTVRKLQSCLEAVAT

[8] = target: T7, maltose-binding protein (MBP)-tagged AF9 AHD domain (475-568) (human, UniProt P42568 475-568); assay: as above; conditions: both partners purified
T7 construct: human AF9, AHD domain, residues 475-568; cDNA synthesized by Genscript, in pMAL c5X; No cleavage of MBP is described; the protein is captured or detected by anti-MBP in the Alpha and pull-down assays; also called MBP-AF9 AHD; source: E. coli BL21(DE3), purified (amylose resin, size exclusion)
T7 sequence (looked up): T1 sequence (P42568 475-568)

IC50 [2]: 13200 ± 1100 nM | IC50 [3]: 72 nM | IC50 [4]: 2000 ± 100 nM | IC50 [5]: 95 ± 16 nM | IC50 [1]: 13 ± 1 nM | IC50 [6]: 60 ± 12 nM
Molecule: NKLPVSIPLASVVLPSRAERARST [DOT1L]

IC50 [3]: ~25000 nM | IC50 [1]: 26500 nM and ~25000 nM
Molecule: CC(C)(C)c1ccc(-c2ccc(-n3cc(C(=O)NC4CCNCC4)nc3-c3ccccc3)cc2)cc1 [Compound 2]

Kd [7]: 9.6 ± 1.7 nM | Kd [8]: 18 ± 1 nM
B1: FITC-AHX-AF4 peptide (peptide)
peptide: {FITC-Ahx}-QSLMVKITLDLLSRIPQPPGK
notes: Used in the FP assay; source: synthetic peptide, bought: Genscript

Kd [7]: 640 ± 60 nM | Kd [8]: 87 ± 9 nM
B3: FITC-AHX-DOT1L peptide (peptide)
peptide: {FITC-Ahx}-NKLPVSIPLASVVLPSRAERARST
notes: Used in the FP assay; also called fluorescein-labeled DOT1L peptide; source: synthetic peptide, bought: Genscript

Second part, the molecule before the results:

Molecule: Cc1nc(C(=O)NC2CCNCC2)cn1-c1ccc(C(C)(C)C)cc1 [Compound 6]
IC50 [1]: > 50000 nM

B2: FITC-AHX-AFF4 peptide (peptide)
peptide: {FITC-Ahx}-YPLIVKIDLNLLTRIPGKPYK
notes: as for B1
Kd [7]: 31 ± 6 nM | Kd [8]: 15 ± 1 nM
